Data set [1] relates to AgRP neurons. Nature of the data set: Whole-cell patch clamp recordings on AgRP neurons. Type of data set: cell-based, mice. Conditions: for effect of pre-treating on asprosin-mediated AgRP neuron activation (firing frequency and resting membrane potential): 100 μM NKY80, 50 μM suramin, 20 μM NF449, 50 μM PTX, 1 μM PKI, 100 μM [D-Lys3]-GHRP-6. The procedure:
Electrophysiology—Whole-cell patch clamp recordings were performed on identified AgRP neurons or POMC neurons in the brain slices containing the arcuate nucleus of the hypothalamus (ARH). In particular, to identify AgRP neurons, the inventors crossed Rosa26-tdTOMATO allele onto the regular AgRP-Cre mice (Tong et al., 2008) to generate AgRP-Cre/Rosa26-tdTOMATO mice, which express TOMATO selectively in AgRP/NPY neurons. In some studies, the inventors crossed NPY-GFP mice (Pinto et al., 2004) with NPS mice to generate NPY-GFP mice with or without the NPS mutation, and GFP-labelled neurons in the arcuate nucleus were recorded. In order to record POMC neurons, the inventors crossed Rosa26-tdTOMATO allele onto the POMC-CreERT2 mice (Berglund et al., 2013) to generate POMC-CreERT2/Rosa26-tdTOMATO mice, which express TOMATO selectively in mature POMC neurons upon tamoxifen induction (0.2 mg/g, i.p. 6 weeks of age). In some studies, the inventors also crossed the AgRP-DTR allele onto POMC-GFP mice, and these mice received DT or saline injections (described above) to generate mice with or without AgRP neurons ablated.
Six to twelve-week old mice were deeply anesthetized with isoflurane and transcardially perfused with a modified ice-cold sucrose-based cutting solution (pH 7.3) containing 10 mM NaCl, 25 mM NaHCO3, 195 mM Sucrose, 5 mM Glucose, 2.5 mM KCl, 1.25 mM NaH2PO4, 2 mM Na-Pyruvate, 0.5 mM CaCl2, and 7 mM MgCl2, bubbled continuously with 95% O2 and 5% CO2 (Ren et al., 2012). The mice were then decapitated, and the entire brain was removed and immediately submerged in the cutting solution. Slices (250 μm) were cut with a Microm HM 650V vibratome (Thermo Scientific). Three brain slices containing the arcuate nucleus were obtained for each animal (Bregma −2.06 mm to −1.46 mm; Interaural 1.74 mm to 2.34 mm), and recordings were made at levels throughout this brain region. The slices were recovered for 1 h at 34° C. and then maintained at room temperature in artificial cerebrospinal fluid (aCSF, pH 7.3) containing 126 mM NaCl, 2.5 mM KCl, 2.4 mM CaCl2, 1.2 mM NaH2PO4, 1.2 mM MgCl2, 11.1 mM glucose, and 21.4 mM NaHCO3) saturated with 95% O2 and 5% CO2 before recording.
Slices were transferred to a recording chamber and allowed to equilibrate for at least 10 min before recording. The slices were superfused at 34° C. in oxygenated aCSF at a flow rate of 1.8-2 ml/min. GFP or TOMATO-labeled neurons in the ARH were visualized using epifluorescence and IR-DIC imaging on an upright microscope (Eclipse FN-1, Nikon) equipped with a moveable stage (MP-285, Sutter Instrument). Patch pipettes with resistances of 3-5 MΩ were filled with intracellular solution (pH 7.3) containing 128 mM K-Gluconate, 10 mM KCl, 10 mM HEPES, 0.1 mM EGTA, 2 mM MgCl2, 0.05 mM Na-GTP and 0.05 mM Mg-ATP. Recordings were made using a MultiClamp 700B amplifier (Axon Instrument), sampled using Digidata 1440A and analyzed offline with pClamp 10.3 software (Axon Instruments). Series resistance was monitored during the recording, and the values were generally <10 MΩ and were not compensated. The liquid junction potential was +12.5 mV, and was corrected after the experiment. Data were excluded if the series resistance increased dramatically during the experiment or without overshoot for action potential. Currents were amplified, filtered at 1 kHz, and digitized at 20 kHz. Current clamp was engaged to test neural firing frequency and resting membrane potential (RM) at the baseline and puff delivered recombinant Asprosin (500 ms at various concentrations indicated in the figures). For the asprosin antibody pre-incubation experiment, asprosin and anti-asprosin mAB or IgG were gently mixed at a 1:100 ratio, and then kept on ice for one hour before recording. After AgRP or POMC neuron response to asprosin alone was confirmed, the mixture of recombinant asprosin and anti-asprosin mAB or IgG was perfused to treat the AgRP or POMC neurons for 4 minutes. […]
For orientation: In patch-clamp work, channel activity is measured electrically.

Data set [2] can be described thus: SPECT scans and gamma counting after intravenous I125-asprosin. Type of data set: in vivo, mice. Conditions: 15 minutes after intravenous injection of 150 μCi. The procedure:
FIGS. 22A-22E: Asprosin traffics to the liver in vivo and binds the hepatocyte surface with high affinity in a saturable and competitive manner. (FIG. 22A) SPECT scans were performed 15 minutes after intravenous injection with 150 μCi I125-asprosin, boiled I125-asprosin, or free I125 in live, anesthetized mice previously injected with bismuth as a hepatic contrast agent. 3 representative images are shown in axial and coronal planes. (FIG. 22B) Liver asprosin accumulation was measured as liver photon intensity from mice in (FIG. 22A). (FIG. 22C) Tissue radioactivity (normalized to tissue weight) was measured using a γ-counter after sacrificing mice from (FIG. 22A), 45 minutes following injection (n=4 mice). (FIG. 22D) Sandwich ELISA was used to measure plasma His tag (recombinant asprosin contains an N-terminal His tag) in WT mice before injection and 15, 30, 60 and 120 minutes after injection with 30 μg recombinant asprosin. The time taken for peak signal to fall to half-maximal level is indicated by the arrow. […] Specific binding (shown in red) was calculated as the difference between the two curves. Data are represented as the mean±SEM.
Recombinant asprosin was labeled with iodine-125 (I^125) and injected intravenously in mice, followed by single-photon emission computerized tomography (SPECT) scans to identify sites of accumulation. […]

Data set [3] deals with mouse primary hepatocytes. The procedure:
Cell Culture. Primary mouse hepatocytes were isolated from 8- to 12-week-old WT mice using standard methodology. […] The cells were treated with 50 nM recombinant asprosin or GFP for 10 minutes for cAMP and PKA assays and for 2 hours for the in vitro glucose production assay. Cells were pretreated with various inhibitors for 1 hour prior to treatment with asprosin, GFP, Glucagon or Epinephrine. cAMP was measured from cell lysates using the cAMP direct immunoassay kit from Cell Biolabs. PKA activity was measured from cell lysates using the PKA kinase activity kit from Enzo Lifesciences, Inc. Media glucose content was measured using the Glucose Colorimetric Assay Kit from Biovision. Results were normalized to protein content.

Data set [4] in a line: Asprosin plasma half-life (biotinylated asprosin sandwich ELISA). The class given is in vivo. As to conditions: mammalian cell expressed asprosin, subcutaneous, mice, FIG. 50B. The procedure:
Asprosin Plasma Half-life—Asprosin expressed in HEK293 was labeled with biotin using a EZ-Link Sulfo-NHS-Biotin kit (Thermo Scientific), and excess biotin was removed using a Zeba Spin desalting column (Thermo Scientific). Final protein concentration was estimated using a BCA assay (Thermo Scientific). Approximately 30 ug/mouse of labeled asprosin was injected subcutaneously into C57Bl/6 mice. Blood was drawn before injection (baseline), and 30, 60, 120, and 360 minutes after injection, as well as after 24 and 48 hours. Biotinylated asprosin was detected using a custom designed sandwich ELISA. A plate was coated with the anti-asprosin monoclonal antibody (capture antibody), total plasma asprosin was bound, and only biotinylated asprosin was detected using Streptavidin-HRP.
A general note: An ELISA detects its analyte on a solid surface through an enzyme-linked reagent.

Data set [5] in a line: Food intake, energy expenditure and body composition after asprosin gain-of-function. Type of data set: in vivo, mice. As to conditions: single subcutaneous dose, C57Bl/6 mice, vs GFP. The procedure: Mouse food intake and energy expenditure—Food intake and energy expenditure were measured using the CLAMS System (Comprehensive Lab Animal Monitoring System, Columbus Instruments). Animals were acclimatized in the recording chambers for 48-72 hours, and measurements were taken subsequently for 24 hours during the light cycle and dark cycle. Mice received food and water ad libitum, or after an overnight fast where indicated. Oxygen consumption and food intake were recorded.
As previously described (Yan et al., 2016), male mice were anesthetized with inhaled isoflurane and stainless steel cannulas (Plastics One) were inserted into the lateral ventricles (0.34 mm caudal and 1 mm lateral from bregma; depth, 2.3 mm). […] These mice received 10 ng GFP ([…]) twice a day for 3 continuous days, and 10 ng asprosin (in […]) the last day. The BioDAQ food intake monitoring system (Research Diets, Inc) was used to monitor the food intake, and the food intake from the last GFP injection and asprosin were compared.
Mouse body composition—Body composition was analyzed using an ECHO-MRI system (Echo medical systems, Texas) or DEXA scans where indicated. Lean mass, fat mass, and overall body weight were calculated using the manufacturer-provided software.

For [D-Lys3]-GHRP-6 [reference compound], the “effect of pre-treating on asprosin-mediated AgRP neuron activation (firing frequency and resting membrane potential)” value (“effect of pre-treating” below) in data set [1] is on record as “no impact”.

On to `Nc1ncc2c(n1)CC(c1ccco1)CC2=O` (stereo not drawn) [NKY80, reference compound], for which the “effect of pre-treating” value in data set [1] is “completely prevented”.

`O=C(Nc1cc(C(=O)Nc2ccc(S(=O)(=O)[O-])cc2S(=O)(=O)[O-])cc(C(=O)Nc2ccc(S(=O)(=O)[O-])cc2S(=O)(=O)[O-])c1)Nc1cc(C(=O)Nc2ccc(S(=O)(=O)[O-])cc2S(=O)(=O)[O-])cc(C(=O)Nc2ccc(S(=O)(=O)[O-])cc2S(=O)(=O)[O-])c1.[Na+].[Na+].[Na+].[Na+].[Na+].[Na+].[Na+].[Na+]` [NF449, reference compound]: the “effect of pre-treating” value in data set [1] was “completely prevented”.

Turning to “I^125-Asprosin: Recombinant asprosin labeled with iodine-125”, the “site of accumulation (SPECT, liver photon intensity)” value in data set [2] is reported as “trafficked primarily to the liver”.

For PTX: Gαi inhibitor [reference compound], in data set [1], the “effect of pre-treating” value was “no impact”.

Consider `Cc1ccc(C(=O)Nc2ccc(S(=O)(=O)O)c3cc(S(=O)(=O)O)cc(S(=O)(=O)O)c23)cc1NC(=O)c1cccc(NC(=O)Nc2cccc(C(=O)Nc3cc(C(=O)Nc4ccc(S(=O)(=O)O)c5cc(S(=O)(=O)O)cc(S(=O)(=O)O)c45)ccc3C)c2)c1` [suramin, reference compound], for which the “effect on asprosin-mediated hepatocyte PKA activation” value in data set [3] was “blocked”. In addition, the “effect of pre-treating” value in data set [1] is recorded as “completely prevented”.

B1: mammalian-generated asprosin: Human asprosin with C-terminal 6x His tag expressed in Expi293 mammalian cells, glycosylated (protein)
chain: STNETDASNIEDQSETEANVSLASWDVEKTAIFAFNISHVSNKVRILELLPALTTLTNHNRYLIESGNEDGFFKINQKEGISYLHFTKKKPVAGTYSLQISSTPLYKKKELNQLEDKYDKDYLSGELGDNLKMKIQVLLHHHHHHH
Consider B1, for which the plasma half-life in data set [4] is approximately 2.42 h; in data set [4] (listed as Mammalian asprosin) it was “approximately 145 minutes”. The “food intake over the next 24-hr” value in data set [5] was “greater food intake”. Moreover, the “dose-dependency of AgRP neuron activation (firing frequency, membrane potential)” value in data set [1] (0.01-100 nM, intact slices) is given as “dose-dependent activation”. In data set [1] (firing frequency and membrane potential), the “EC50 for AgRP neuron activation” value is on record as “nanomolar to subnanomolar range”.

The values are drawn from patent US20210047398A1, “ASPROSIN, A FAST-INDUCED GLUCOGENIC PROTEIN HORMONE” (Baylor College of Medicine, priority 2016, published 2021).
